± gives the uncertainty stated by the source.
Assay: xn = mol fraction of the nth substance listed
Details: 101 kPa

NCCN + OCCCCO
viscosity [mPa·s]
Details	293.15 K	298.15 K	303.15 K	308.15 K	313.15 K	318.15 K
x1 = 0.0733	100 ± 14	74.8 ± 6.3	55.2 ± 1.2	43.2 ± 2.1	33.4 ± 1.7	–
x1 = 0.1427	101 ± 15	75.2 ± 6.4	55.3 ± 1.2	44.5 ± 2.2	33.8 ± 1.7	–
x1 = 0.2094	98.8 ± 14	72.8 ± 5.7	53.1 ± 0.72	42.5 ± 2.1	32 ± 1.6	28.8 ± 1.4
x1 = 0.2728	92.3 ± 12	67.6 ± 4.3	49.1 ± 2.4	39.1 ± 1.9	29.5 ± 1.5	25.8 ± 1.3
x1 = 0.3334	82.3 ± 8.5	60.1 ± 2.3	43.5 ± 2.1	34.4 ± 1.7	25.7 ± 1.3	22.6 ± 1.1
x1 = 0.3913	69.3 ± 4.7	50.5 ± 0.29	36.8 ± 1.8	29.2 ± 1.5	22 ± 1.1	19.3 ± 0.99
x1 = 0.4467	55.9 ± 1.3	40.8 ± 2	29.9 ± 1.5	23.7 ± 1.2	18.2 ± 0.94	16.1 ± 0.85
x1 = 0.4999	42.7 ± 2.1	31.5 ± 1.6	23.4 ± 1.2	19 ± 0.98	14.5 ± 0.77	12.9 ± 0.7
x1 = 0.551	32.1 ± 1.6	23.8 ± 1.2	18 ± 0.93	14.6 ± 0.78	11.3 ± 0.62	10.3 ± 0.57
x1 = 0.5999	23.8 ± 1.2	17.9 ± 0.93	13.7 ± 0.73	11.3 ± 0.62	8.84 ± 0.51	8.14 ± 0.47
x1 = 0.6469	17.4 ± 0.91	13.2 ± 0.71	10.2 ± 0.57	8.63 ± 0.5	7.05 ± 0.42	6.33 ± 0.39
x1 = 0.6921	12.7 ± 0.69	9.92 ± 0.56	7.8 ± 0.46	6.62 ± 0.4	5.34 ± 0.34	4.99 ± 0.33
x1 = 0.7358	9.34 ± 0.53	7.44 ± 0.44	5.91 ± 0.37	5.11 ± 0.33	4.17 ± 0.28	3.95 ± 0.26
x1 = 0.7777	7.02 ± 0.42	5.61 ± 0.35	4.57 ± 0.3	4 ± 0.26	3.28 ± 0.22	3.13 ± 0.21
x1 = 0.8181	5.28 ± 0.34	4.3 ± 0.28	3.53 ± 0.23	3.15 ± 0.21	2.61 ± 0.18	2.51 ± 0.17
x1 = 0.8572	4.06 ± 0.27	3.38 ± 0.23	2.78 ± 0.19	2.5 ± 0.17	2.1 ± 0.14	2.02 ± 0.14
x1 = 0.9311	2.51 ± 0.17	2.11 ± 0.14	1.78 ± 0.13	1.63 ± 0.12	1.41 ± 0.11	1.37 ± 0.11

From the CheMixHub viscosity set
